{"source": "patent US20020133846A1", "about": "“Method for protecting plants” (priority 1996, published 2002)", "key": {"[1]": {"test_system": "Peronospora parasitica (NoCo2)", "test": "Resistance to Peronospora parasitica (NoCo2) in Arabidopsis, Example 17", "assay_type": "in vivo", "settings": "wild type Col-0 plants treated with INA 0.25 mg/ml, seven days after inoculation"}, "[2]": {"test_system": "Pseudomonas syringae DC3000", "test": "Infection with Pseudomonas syringae DC3000 in Arabidopsis, Example 17", "settings": "wild-type plants pretreated with INA (0.25 mg/ml)", "method": "Six-week-old wild-type (±INA treatment), and cim3 plants were inoculated with a suspension of P. syringae DC3000 and the progress of the disease was followed by monitoring the growth of the bacteria extracted from infected leaves over time. […] The plants were also visually inspected for disease symptoms.\nFor this example, cultures of Pseudomonas syringae pv. tomato strain DC3000 were grown on King's B media (agar plates or liquid) plus rifampicin (50 jig/ml) at 28° C. […] An overnight culture was diluted and resuspended in 10 mM MgCT2 to a density of 2-5×10^5 cells per ml and injected into Arabidopsis leaves. Injections were carried out by creating a small hole with a 28 gauge needle midway up the leaf and then injecting approximately 250 μl of the diluted bacterial solution with a 1 cc syringe. At various time points, 10 random samples consisting of 3 random leaf punches from a #1 cork borer were taken from 10 plants from each treatment. The 3 leaf punches were placed in an eppendorf tube with 300 μl of 10 MM MgCl2 and ground with a pestle. The resulting bacterial suspension was appropriately diluted and plated on King's B media plus rifampicin (50 μg/ml) and grown for 4 days at 28° C. Bacterial colonies were counted and the data were subjected to Student's t statistical analysis (Sokal and Rohlf (1981), Biometry, 2nd ed. New York: W.H. Freeman and Company). […]"}, "[3]": {"test": "Action on crop yield of chili, field", "assay_type": "in vivo", "settings": "Table 18, harvest after sixth spraying, comp. I alone 5 ppm"}, "Puccinia recondita": {"test_system": "Puccinia recondita", "test": "Action against Puccinia recondita in wheat", "settings": "Table 19, comp. I alone 100 mg a.i. per liter", "method": "7-day-old wheat plants were sprayed to drip point with a spray mixture prepared from a formulated active ingredient, or combination of active ingredients. After 4 days, the treated plants were infected with a conidia suspension of the fungus, and the treated plants were subsequently incubated for 2 days at a relative atmospheric humidity of 90-100% and 20 C. 10 days post-infection, the fungus infestation was assessed."}, "PR-1 gene expression": {"test_system": "PR-1 gene expression", "test": "Northern analysis of PR-1 gene expression after BTH treatment, Ws and NIM1-overexpressing lines", "assay_type": "in vivo, Arabidopsis thaliana", "settings": "for PR-1 gene expression: 10 μM BTH"}, "[4]": {"test_system": "Peronospora parasitica Emwa", "test": "Action against Peronospora parasitica Emwa in Arabidopsis thaliana (Ws), rRNA fungal probe", "assay_type": "in vivo", "settings": "Hyaloperonospora parasitica, in Arabidopsis thaliana; for inhibition at 10 µM: BTH alone 0.01 mM"}, "Phytophthora infestans": {"test_system": "Phytophthora infestans", "assay_type": "in vivo"}, "Peronospora tabacina": {"test_system": "Peronospora tabacina", "test": "Action against Peronospora tabacina on tobacco plants", "method": "Tobacco plants (6 weeks old) were sprayed with a formulated solution of the test compound. Four days after treatment, the plants were inoculated with a sporangia suspension of the fungus, kept at high humidity for 4 to 5 days and then incubated further under a normal day/night sequence. Evaluation of the symptoms in the tests was based on the leaf surface infested with fungus. The infestation of the untreated plants corresponded to 0 % action."}, "Mycosphaerella fijiensis": {"test_system": "Mycosphaerella fijiensis", "test": "Action against Mycosphaerella fijiensis in bananas", "settings": "Table 23, comp. I alone 50 g a.i. per ha", "method": "40 banana plants in a 300 m^2 plot were sprayed at 17-19 day intervals with a spray mixture prepared with the wettable powder of the active ingredient; in total 6 times. Infection was naturally. For evaluation, the leaf infested with the fungus was measured."}, "Colletotrichum sp.": {"test_system": "Colletotrichum sp.", "test": "Action against Colletotrichum sp. (anthracnose) on chili, field", "assay_type": "in vivo", "settings": "Table 16, chili fruits after fifth spraying, comp. I alone 5 ppm", "excerpt": "Effects on crop yield: In a plot of land about 10 m^2 (test location: Cikampek, Java, Indonesia), chili plants were sprayed a total of 7 times at intervals of about 7 days with 500-700 liters of spray mixture per hectare. Three days after the first spraying, the plants were infected artificially with the fungus."}, "[5]": {"test_system": "Peronospora parasitica NoCo2", "test": "Action against Peronospora parasitica NoCo2 in Arabidopsis thaliana (Col-0), rRNA fungal probe", "assay_type": "in vivo", "settings": "Table 29, Col-0, BTH alone 0.01 mM"}, "[6]": {"test_system": "Peronospora parasitica isolate Emwa", "test": "Fungal resistance to Peronospora parasitica Emwa after BTH treatment, Ws and NIM1-overexpressing lines", "assay_type": "in vivo", "settings": "10 μM BTH"}, "Cercospora sp.": {"test_system": "Cercospora sp.", "test": "Action against Cercospora sp. (leaf spot) on chili, field", "assay_type": "in vivo", "settings": "Table 17, leaves after sixth spraying, comp. I alone 5 ppm"}, "Alternaria solani": {"test_system": "Alternaria solani", "test": "Action against Alternaria solani in tomatoes in the open", "settings": "Table 24, comp. I alone 2.5 g a.i. per ha", "method": "Tomato plants on a 7 m^2 plot were sprayed at 7-day intervals with a spray mixture prepared wettable powder of the active ingredient; in total 9 times. Infection was naturally. For ion, the leaf infested with the fungus was measured."}, "Erysiphe graminis [7]": {"test_system": "Erysiphe graminis", "test": "Action against Erysiphe graminis in wheat, field trials", "method": "In field trials (10 m^2), winter wheat in the growth phase was sprayed with a spray mixture prepared with a wettable powder of the active ingredient. Infection was naturally. 10 days post-infection, the fungus infestation was assessed."}, "[8]": {"test_system": "Peronospora parasitica NoCo2", "test": "whole plant or invertebrate", "assay_type": "in vivo", "settings": "Hyaloperonospora parasitica, in Arabidopsis thaliana"}, "Pyricularia oryzae [9]": {"test_system": "Pyricularia oryzae", "assay_type": "in vivo"}, "Pyricularia oryzae [10]": {"test_system": "Pyricularia oryzae", "assay_type": "in vivo", "remark": "listed apart in the source"}, "[11]": {"test_system": "Colletotrichum lagenarium", "test": "Action against Colletotrichum lagenarium on Cucumis sativus L., soil application", "assay_type": "in vivo"}, "Cercospora nicotianae": {"test_system": "Cercospora nicotianae", "test": "Action against Cercospora nicotianae on tobacco plants", "assay_type": "in vivo"}, "Erysiphe graminis [12]": {"test_system": "Erysiphe graminis", "test": "Action against Erysiphe graminis on barley (residual-protective / systemic)", "method": "Residual-protective action: Barley plants about 8 cm in height were sprayed to drip point with an aqueous spray mixture (max. 0.02 % active ingredient) and were dusted 3 to 4 days later with conidia of the fungus. The infected plants were stood in a greenhouse at 22°. Fungus infestation was generally evaluated 10 days after infection.\nSystemic action: Barley plants about 8 cm in height were watered with an aqueous spray mixture (max. 0.002 % active ingredient, based on the volume of the soil). […] The plants were dusted with conidia of the fungus 3 to 4 days later. The infected plants were stood in a greenhouse at 22°. Fungus infestation was generally evaluated 10 days after infection."}, "Pyricularia oryzae [13]": {"test_system": "Pyricularia oryzae", "assay_type": "in vivo", "settings": "Table 13, comp. I alone 6 ppm"}}, "note": "Where two headings read alike, the source gives them in different places.", "data": [{"smiles": "O=C(O)c1cc(Cl)nc(Cl)c1", "note": "[INA, 2,6-dichloroisonicotinic acid]", "values": [{"measurement": "fungal growth (trypan blue, sporulation)", "setting": "[1]", "result": "no fungal growth"}, {"measurement": "disease symptoms (visual inspection)", "setting": "[2]", "result": "nearly devoid of disease symptoms"}]}, {"smiles": "CSC(=O)c1cccc2nnsc12", "note": "[BTH]", "values": [{"measurement": "Crop yield in kg per hectare O (observed)", "setting": "[3]", "result": 459, "unit": "kg per hectare"}, {"measurement": "% action O (observed)", "setting": "Puccinia recondita", "result": 51, "unit": "%"}, {"measurement": "PR-1 gene expression in leaf tissue", "setting": "PR-1 gene expression; NIM1-overexpressing lines relative to wild-type, 100 μM BTH", "result": "much stronger and quicker"}, {"measurement": "PR-1 gene expression", "setting": "PR-1 gene expression; NIM1-overexpressing lines", "result": "much stronger response"}, {"measurement": "PR-1 gene expression", "setting": "PR-1 gene expression; wild-type Ws line", "result": "barely detectable"}, {"measurement": "inhibition at 3 µM", "setting": "[4]; Table 30, Ws, BTH alone 0.003 mM, read-out: Fungal Growth Inhibition % O (observed)", "result": 0, "unit": "%"}, {"measurement": "inhibition at 10 µM", "setting": "[4]; Table 30, Ws, read-out: Fungal Growth Inhibition % O (observed)", "result": 20, "unit": "%"}, {"measurement": "inhibition at 10 µM", "setting": "[4]; Table 31, Ws, read-out: Fungal Growth Inhibition % O (observed)", "result": 30, "unit": "%"}, {"measurement": "inhibition at 10 µM", "setting": "[4]; Table 32, Ws, read-out: Fungal Growth Inhibition % O (observed)", "result": 30, "unit": "%"}, {"measurement": "inhibition at 10 µM", "setting": "[4]; text summary of Tables 30-32, Ws plants, read-out: fungal growth inhibition", "result": "20 to 30", "unit": "%"}, {"measurement": "% action O (observed)", "setting": "Phytophthora infestans; Table 25, comp. I alone 5 mg a.i. per liter", "result": 14, "unit": "%"}, {"measurement": "% action O (observed)", "setting": "Phytophthora infestans; Table 25, comp. I alone 25 mg a.i. per liter", "result": 36, "unit": "%"}, {"measurement": "% action O (observed)", "setting": "Phytophthora infestans; Table 25, comp. I alone 100 mg a.i. per liter", "result": 61, "unit": "%"}, {"measurement": "% action O (observed)", "setting": "Phytophthora infestans; Table 25, comp. I alone 500 mg a.i. per liter", "result": 72, "unit": "%"}, {"measurement": "% action O (observed)", "setting": "Peronospora tabacina; Table 28, comp. I alone 0.03 ppm", "result": 14, "unit": "%"}, {"measurement": "% action O (observed)", "setting": "Peronospora tabacina; Table 28, comp. I alone 0.1 ppm", "result": 34, "unit": "%"}, {"measurement": "% action O (observed)", "setting": "Peronospora tabacina; Table 28, comp. I alone 0.3 ppm", "result": 88, "unit": "%"}, {"measurement": "% action O (observed)", "setting": "Mycosphaerella fijiensis", "result": 19, "unit": "%"}, {"measurement": "% action O (observed)", "setting": "Colletotrichum sp.", "result": 55, "unit": "%"}, {"measurement": "inhibition at 10 µM", "setting": "[5]; Hyaloperonospora parasitica, in Arabidopsis thaliana, read-out: Fungal Growth Inhibition % O (observed)", "result": 0, "unit": "%"}, {"measurement": "Fungal Growth Inhibition % O (observed)", "setting": "[5]", "result": "no fungal growth inhibition"}, {"measurement": "resistance to P. parasitica", "setting": "[6]; NIM1-overexpressing lines", "result": "complete or almost complete resistance"}, {"measurement": "susceptibility to P. parasitica (Emwa)", "setting": "[6]; wild-type Ws plants", "result": "still susceptible"}, {"measurement": "% action O (observed)", "setting": "Cercospora sp.", "result": 76, "unit": "%"}, {"measurement": "% action O (observed)", "setting": "Alternaria solani", "result": 32, "unit": "%"}, {"measurement": "% action O (observed)", "setting": "Erysiphe graminis [7]; Table 21, comp. I alone 5 g a.i. per ha", "result": 29, "unit": "%"}, {"measurement": "% action O (observed)", "setting": "Erysiphe graminis [7]; Table 22, comp. I alone 5 g a.i. per ha", "result": 29, "unit": "%"}, {"measurement": "inhibition at 30 µM", "setting": "[8]; read-out: Fungal Growth Inhibition % O (observed), Table 34, wt Col-0, BTH 0.03 mM", "result": 20.8, "unit": "%"}, {"measurement": "inhibition at 100 µM", "setting": "[8]; read-out: Fungal Growth Inhibition % O (observed), Table 34, wt Col-0, BTH 0.1 mM", "result": 85.7, "unit": "%"}, {"measurement": "% action O (observed)", "setting": "Pyricularia oryzae [9]; Table 15, comp. I alone 0.05 ppm", "result": 5, "unit": "%"}, {"measurement": "% action O (observed)", "setting": "Pyricularia oryzae [9]; Table 15, comp. I alone 0.1 ppm", "result": 18, "unit": "%"}, {"measurement": "% action O (observed)", "setting": "Pyricularia oryzae [9]; Table 15, comp. I alone 0.25 ppm", "result": 39, "unit": "%"}, {"measurement": "% action O (observed)", "setting": "Pyricularia oryzae [9]; Table 15, comp. I alone 0.5 ppm", "result": 65, "unit": "%"}, {"measurement": "% action O (observed)", "setting": "Pyricularia oryzae [10]; Table 14, comp. I alone 0.25 kg a.i. per ha", "result": 22, "unit": "%"}, {"measurement": "% action O (observed)", "setting": "Pyricularia oryzae [10]; Table 14, comp. I alone 0.5 kg a.i. per ha", "result": 50, "unit": "%"}, {"measurement": "% action O (observed)", "setting": "[11]; Table 8, comp. I alone 0.02 ppm", "result": 6, "unit": "%"}, {"measurement": "% action O (observed)", "setting": "[11]; Table 8, comp. I alone 0.2 ppm", "result": 36, "unit": "%"}, {"measurement": "% action O (observed)", "setting": "[11]; Table 8, test 1, comp. I alone 0.06 ppm", "result": 0, "unit": "%"}, {"measurement": "% action O (observed)", "setting": "[11]; Table 8, test 3, comp. I alone 0.06 ppm", "result": 23, "unit": "%"}, {"measurement": "% action O (observed)", "setting": "Cercospora nicotianae; Table 9, comp. I alone 0.2 ppm", "result": 0, "unit": "%"}, {"measurement": "% action O (observed)", "setting": "Cercospora nicotianae; Table 9, comp. I alone 2 ppm", "result": 17, "unit": "%"}, {"measurement": "% action O (observed)", "setting": "Cercospora nicotianae; Table 9, comp. I alone 6 ppm", "result": 55, "unit": "%"}, {"measurement": "% action O (observed)", "setting": "Cercospora nicotianae; Table 9, comp. I alone 20 ppm", "result": 78, "unit": "%"}, {"measurement": "% action O (observed)", "setting": "Cercospora nicotianae; Table 10, comp. I alone 0.2 ppm", "result": 0, "unit": "%"}, {"measurement": "% action O (observed)", "setting": "Cercospora nicotianae; Table 10, comp. I alone 2 ppm", "result": 17, "unit": "%"}, {"measurement": "% action O (observed)", "setting": "Cercospora nicotianae; Table 10, comp. I alone 6 ppm", "result": 55, "unit": "%"}, {"measurement": "% action O (observed)", "setting": "Cercospora nicotianae; Table 10, comp. I alone 20 ppm", "result": 78, "unit": "%"}, {"measurement": "% action O (observed)", "setting": "Erysiphe graminis [12]; Table 3, comp. I alone 0.6 ppm", "result": 14, "unit": "%"}, {"measurement": "% action O (observed)", "setting": "Erysiphe graminis [12]; Table 3, comp. I alone 2 ppm", "result": 33, "unit": "%"}, {"measurement": "% action O (observed)", "setting": "Pyricularia oryzae [13]", "result": 15, "unit": "%"}]}]}
